This is an account of results in patent US20180127360A1 (Elé Corporation, priority 2016, published 2018).

The data set is described as follows: Surface tension, du Nouy ring interfacial tensiometer. The format is physicochemical. The note with it: 25° C. How it is done: Surface tension measurements were taken on solutions made from the mixture prepared in Example 1(C) using a du Nouy ring interfacial tensiometer, equipped with a six-cm circumference platinum-iridium ring. A series of test solutions at different concentrations were prepared and their surface tension measured at 25° C. For each test concentration, the ring is slowly drawn out of the liquid. The surface tension is equal to the force required to draw the ring completely out of the liquid, divided by twice the circumference of the ring. […] The surface tension at the CMC was 29.6 dyne/cm.

Structures are written as SMILES.

With `CCCCCCCCCCCCNCCC(=O)O.N=C(N)NCCCC(N)C(=O)O` [Example 1(C)], the “surface tension at the CMC” value is recorded as 29.6 dyne/cm. For the same compound, for the setting “series of test solutions at different concentrations”, the “Critical Micelle Concentration (CMC)” value is 2.46 millimoles per liter.
